Where “and” joins values, the source holds several entries; their conditions need not be identical. Equal entries are not always repeated.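 These data come from cells grown in 96-well plates and exposed to compound for 48 hours at five concentrations. The concentration for 50% growth inhibition is given as GI50. Definition used: TGI = concentration required for complete inhibition of growth.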
Columns and labels:
Experiment in all cases: growth of human tumour cells (NCI), 48 h
A549 NSCLC = tested on: A549 NSCLC
RPMI-8226 leukemia = tested on: RPMI-8226 leukemia
SK-OV-3 ovarian = tested on: SK-OV-3 ovarian
UACC-257 melanoma = tested on: UACC-257 melanoma
K-562 leukemia = tested on: K-562 leukemia
MALME-3M melanoma = tested on: MALME-3M melanoma
HT29 colon = tested on: HT29 colon
SNB-75 CNS = tested on: SNB-75 CNS
HCT-15 colon = tested on: HCT-15 colon
SNB-19 CNS = tested on: SNB-19 CNS

Row | Structure (SMILES) | GI50 (A549 NSCLC) | TGI (A549 NSCLC) | GI50 (RPMI-8226 leukemia) | TGI (RPMI-8226 leukemia) | TGI (SK-OV-3 ovarian) | GI50 (UACC-257 melanoma) | TGI (UACC-257 melanoma) | GI50 (K-562 leukemia) | TGI (K-562 leukemia) | TGI (MALME-3M melanoma) | GI50 (HT29 colon) | TGI (HT29 colon) | TGI (SNB-75 CNS) | GI50 (HCT-15 colon) | TGI (HCT-15 colon) | TGI (SNB-19 CNS) | GI50 (SK-OV-3 ovarian) | GI50 (MALME-3M melanoma) | GI50 (SNB-75 CNS) | GI50 (SNB-19 CNS)
1 | CN1C(c2ccccc2)CC(=NO)CC1c1ccccc1 (stereo unspecified) | 88.1 µM | > 100 µM | 33 µM | 55.5 µM | > 100 µM | 26.8 µM | > 100 µM and 79.9 µM | 32.6 µM | > 100 µM | > 100 µM | 34.8 µM | > 100 µM | > 100 µM | 41.1 µM | > 100 µM | > 100 µM |  |  |  | 
2 | CCC(CO)Nc1nc(NCc2ccccc2)c2n[nH]c(C(C)C)c2n1 (stereo unspecified) | 12 µM | 46.4 µM | 5.95 µM | 29 µM | 20.7 µM | 16.6 µM | 35.6 µM | 5.96 µM | 34.4 µM | 27.4 µM | 3.88 µM | 27.8 µM | 25.4 µM | 14.7 µM | 49.7 µM | 30.5 µM | 6.4 µM | 13 µM | 11.4 µM | 15.8 µM
3 | CC[C@H](C)[C@H](NC(=O)c1ncccn1)C(=O)N(C)[C@H](C[C@@H](OC(C)=O)c1nc(C(=O)N[C@@H](Cc2ccccc2)C[C@H](C)C(=O)OC)cs1)C(C)C | 6.23 µM | > 25 µM | 0.793 µM | 3.98 µM | > 25 µM | 2.38 µM | > 25 µM | 0.935 µM | > 25 µM | > 25 µM | 0.893 µM | > 25 µM | > 25 µM | 1.39 µM | > 25 µM | > 25 µM | 5.51 µM | 1.29 µM | 0.768 µM | 2.32 µM
4 | COc1ccc2c(c1)c1ccc3c(c1n2C)C(=O)C=CC3=O |  | 68.7 µM |  | 7.35 µM | 41.3 µM |  | 24.9 µM |  | 4.89 µM | 18.8 µM |  | 34.9 µM | 68.9 µM |  | 10.9 µM | 53 µM |  |  |  | 

From PubChem BioAssay (NCI)
